One compound from paper PMC4669759 (Cell Death & Disease, 2015) can be followed below.

Test [1] addresses T1, BCL-XL–BAD complexes (Homo sapiens, UniProt Q07817).
T1 construct: expressed in transfected cells; host or cells: T-REx-293, bicistronic expression module integrated at a single genomic site
The test is described as follows: Live cell redistribution assay, eGFP-BCL-XL and mCherry-BAD, T-REx-293 cells. Format: cell-based. The conditions noted are these: 10 μM, 300 min. An excerpt: To further rule out potential artifacts associated with lysate detergents that can influence interactions between BCL-2 family proteins,[47] we employed a recently described real-time imaging method to assess the effects on BCL-2 family complexes in live cells.[48] Briefly, interacting pairs of BCL-2 family proteins are expressed as fluorescent fusion proteins at stoichiometric levels from a bicistronic expression module integrated into a single site of the genome in T-REx-293 cells. […]
(§1) Figure 3 A-1210477 inhibits MCL-1-BIM complexes in live cells. […] The decrease in amount of mCherry-BH3 protein localized to the mitochondria was quantified as a function of time as described in the Materials and Methods, normalized to DMSO control, and fitted to a single exponential decay. Each data point represents the mean change in intensity calculated from 10 fields of view, with error bars indicating the S.E.M. (b) T-REx-293 cells stably expressing eGFP-MCL-1(3B) and mCherry-BIMS(2A)ΔC were treated with 50 μM ABT-737 or increasing concentrations (1–25 μM) A-1210477 for 100 min. The decrease in amount of mCherry-BIMS(2A)ΔC localized to the mitochondria was quantified as in panel (a). (c) Representative fluorescence microscopic images of T-REx-293 cells stably expressing eGFP-BCL-2 family and interacting mCherry-BH3-only proteins before and after 300 min of treatment with 10 μM A-1210477 or (d) ABT-737. […]

Test [2] deals with MCL-1(3B)–BIMS(2A)ΔC complexes. The test is described as follows: Live cell redistribution assay, eGFP-MCL-1(3B) and mCherry-BIMS(2A)ΔC, T-REx-293 cells. Format: cell-based.
From the text: To further rule out potential artifacts associated with lysate detergents that can influence interactions between BCL-2 family proteins,[47] we employed a recently described real-time imaging method to assess the effects on BCL-2 family complexes in live cells.[48] Briefly, interacting pairs of BCL-2 family proteins are expressed as fluorescent fusion proteins at stoichiometric levels from a bicistronic expression module integrated into a single site of the genome in T-REx-293 cells. Under basal conditions, both proteins localize primarily to the mitochondria, where the anti-apoptotic proteins (enhanced green fluorescent protein (eGFP)-BCL-2, eGFP-BCL-XL, or eGFP-MCL-1(3B)) sequester their pro-apoptotic counterparts (mCherry-BAD or mCherry-BIMS(2A)ΔC, the latter being a specific binder of MCL-1[48], [49]). Disruption of these complexes can be tracked by measuring the amount of mCherry-labeled BH3-only protein localized specifically to the mitochondria. […]
as §1
Experiments were carried out as detailed previously.[48] […] Therefore, the entire cell was identified with a single intensity threshold applied to the eGFP fluorescence, excluding areas identified as mitochondria. […]

Test [3] concerns MCL1 mRNA. The test is described as follows: MCL1 mRNA by reverse transcriptase-PCR in HCC-1806 cells. The class given is cell-based. The conditions noted are these: 8 h. On the procedure:
Figure 1 MCL-1 levels are elevated in cancer cells after treatment with MCL-1-binding small molecules. (a) H929 multiple myeloma cells were treated for 4 h with 10 μM A-1210477 before immunopreciptating MCL-1. […] A control H929 lysate was run in lane 1, and an immunoprecipitation with a non-specific antibody (Ig) was run in lane 2. The positions of molecular weight markers (specified in kiloDaltons) are indicated on the left. (b) HCC-1806 breast cancer cells were incubated with increasing concentrations of A-1210477 (0.1, 0.5, 1, 5, 10, 15, or 20 μM) or bortezomib (2, 10, or 50 nM) for 8 h before assessing MCL-1 and NOXA levels by immunoblotting. β-Actin was probed as a protein loading control. The lower graph depicts reverse transcriptase-PCR quantification of MCL1 mRNA from HCC-1806 cells treated for 8 h with similar concentrations of A-1210477. (c) HCC-1806 cells were incubated with increasing concentrations (0.1, 0.5, 1, 5, 10, and 20 μM) of A-954248, A-962653, or A-1248767 for 24 h before assessing MCL-1 and BCL-XL levels by immunoblotting. β-Actin was probed as a protein loading control

The subject of test [4] is H23 cells. The test is described as follows: Cell viability, H23 cells. Format: cell-based, human. The procedure:
Figure 5 A-1210477 kills MCL-1-dependent NSCLC cancer cell lines. NSCLC cell lines (a) H2110 or (c) H23 were transfected with a construct expressing the MCL1 CDS tagged with a Flag epitope or empty control vector. These cells were subsequently transfected with siRNAs targeting the MCL1 CDS, the MCL1 3′ UTRa or UTRb, or a scrambled control sequence. Cell viability was assessed 72 h later with MCL-1 and Flag immunoblots performed in parallel. (b) H2110 or (d) H23 cells were treated with increasing concentrations of A-1210477 for 72 h before assessing cell viability.
Adherent cell lines were seeded at 50 000 cells per well in 96-well plates and treated for 48 h with compounds diluted in half-log steps starting at 30 μM and ending at 0.001 μM. Multiple myeloma cell lines were seeded at 15 000–20 000 cells per well and treated similarly. Effects on proliferation and viability were determined using CellTiter-Glo reagent from Promega (Madison, WI, USA) according to the manufacturer's instructions. IC50 values were determined by non-linear regression analysis of the concentration response data.

T1 sequence (Q07817 whole entry, one chain of several): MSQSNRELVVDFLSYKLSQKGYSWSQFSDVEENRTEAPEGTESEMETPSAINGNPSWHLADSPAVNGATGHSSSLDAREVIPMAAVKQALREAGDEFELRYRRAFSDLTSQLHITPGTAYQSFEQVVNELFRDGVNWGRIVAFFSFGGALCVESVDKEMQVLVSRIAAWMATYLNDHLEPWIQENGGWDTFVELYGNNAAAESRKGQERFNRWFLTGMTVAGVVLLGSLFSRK

`Cc1nn(C)c(COc2ccc(N3CCN(S(=O)(=O)N(C)C)CC3)cc2)c1-c1cccc2c(CCCOc3cccc4ccccc34)c(C(=O)O)n(CCN3CCOCC3)c12` [A-1210477]: the “redistribution of mCherry-BAD associated with BCL-XL” value in test [1] is “no effect”. For the same compound, the “redistribution of mCherry-BIMS(2A)ΔC from mitochondria” value in test [2] (T-REx-293 cells expressing MCL-1(3B)) was “induced dose-dependent redistribution of BIMS(2A)ΔC to the cytosol”. Further, in test [2] (T-REx-293 cells, 100 min), the “lowest concentration at which BIMS(2A)ΔC redistribution could be observed” value is 1 µM. Moreover, the “effect on MCL1 mRNA” value in test [3] is “No corresponding increase in MCL1 mRNA”. Further, in test [4] (H23), the IC50 is less than 10 µM. In test [4] (H23, 72 h), this compound returned an EC50 of 7.2 µM.
